In brackets after ≈: the same amount, converted by molar mass.
Legend:
[1] = UV spectroscopy (absorption at 500 nm), critical aggregation concentration; assay type: physicochemical; details: water solution; GCR-2 in the presence of two-fold excess of MG
Description: Consequently, there is a chance that GCR-1 aggregates form not only by hydrogen bonds between hydroxylic groups but also by electrostatic interaction between negatively charged sulfonate groups on the lower rim and partially-positively charged meglumine groups on the upper rim. The change of optical density at 500 nm with increasing GCR-1 concentration has a nonlinear character (Figure 3b). The linear dependence breaks after 10 mM that correlates well with the CAC obtained by conductometry and tensiometry, and this violation of Lambert-Beer law is due to formation of GCR-1 aggregates in solution.
(§1) Dependence of GCR-2 at 500 nm on its concentration also loses linearity at higher 7.2 mM (Figure 3b). This is because the dissolved molecules of GCR-2 aggregate that confirms by conductometry and tensiometry. The obtained values of the correlation coefficients r^2 calculated for both calixarenes in a wide concentration range depict that GCR-2 has a greater ability to aggregate than GCR-1. […] Probably, the short methyl groups fail to form a nonpolar core capable of incorporating hydrophobic guests. Thus, the cooperative effect of hydrogen bonds and π-stacking between GCR-2 molecules contribute to formation of compact aggregates incapable to solubilization of hydrophobic molecules. […]

[2] = Hydrophobic dye (Sudan I) solubilization; assay type: physicochemical; details: water solution; GCR-2 with two-fold excess of MG; absorption band at 500 nm region
Description: The method of solubilization of the hydrophobic dye Sudan I was used for determination of formed aggregates’ morphology. The appearance of an absorption band characteristic of a lipophilic substance in an aqueous solution of a specific component indicates the formation of a hydrophobic core of the component aggregates, like in surfactant micelles, which solubilizes the hydrophobic substrate.
as §1, with “guests.” for “guests. Thus, the cooperative effect of hydrogen bonds and π-stacking between GCR-2 molecules contribute to formation of compact aggregates incapable to solubilization of hydrophobic molecules.”
Hydrophobic dye solubilization was carried out by adding an excess of Sudan I to solutions. […] They were filtered, and Sudan I absorbance was measured at 486 nm using a Specord 250 Plus spectrophotometer (Analytic Jena, Jena, Germany) using a 1 mm optical path length quartz cell. Dye absorbance was obtained by subtraction of the contribution of macrocycle to the summary spectrum. Each absorbance spectrum was obtained three times, and the absorbance intensities were within 2–3%.

[3] = tested on: B. cereus 8035; experiment: Bactericidal activity (MBC); assay type: cell-based; details: Bacillus cereus; B. cereus 8035, bactericidal activity; read-out: Minimal Bactericidal Concentration (MBC)
Description: (§2) In vitro bacteriostatic and fungistatic activities of the macrocycles were evaluated against pathogenic representatives of Gram-positive bacteria (Staphylococcus aureus 209p, Bacillus cereus 8035), Gram-negative bacteria (Pseudomonas aeruginosa 9027, Escherichia coli F-50), and yeast (Trichophyton mentagrophytes var. gypseum 1773, Aspergillus niger BKMF-1119, Candida albicans 885–653). Minimal inhibitory concentrations (MICs) were estimated by conventional dilution methods for bacteria and fungi. The antibacterial and antifungal assays were performed in Hottinger broth (HiMe-dia Laboratories Pvt. Ltd. Mumbai, India) and Sabouraud dextrose broth (HiMedia Laboratories Pvt. Ltd.) (bacteria 3 × 10^5 cfu/mL and yeast 2 × 10^4 cfu/mL). The bactericidal and fungicidal activities were determined as described earlier. The tests were repeated three times.

[4] = tested on: S. aureus 209P; experiment: Bactericidal activity (MBC); assay type: cell-based; details: Staphylococcus aureus, read-out: Minimal Bactericidal Concentration (MBC)
Description: as §2

[5] = Hemolytic activity; assay type: cell-based; details: human erythrocyte suspension, human erythrocytes, 37 °C
Description: The hemolytic activity of the compounds was estimated by comparing the optical density of a solution containing a compound being tested and the blood with the optical density of the blood upon 100% hemolysis. A 10% suspension of human erythrocytes was used as an object of investigation; an erythrocytic mass with heparin was washed three times with a physiologic saline (0.9% NaCl) solution, centrifuged for 10 min at 800× g, and resuspended in the physiologic saline (0.9% NaCl) solution to a concentration of 10%. The concentrations of the compounds that corresponded to the MIC for the bacterial test strains were prepared in a physiologic saline (0.9% NaCl) solution (supplemented with 5% DMSO), and 4.5 mL of a compound at the corresponding dilution was added to 0.5 mL of a 10% suspension of erythrocytes. Samples were incubated for 1 h at 37 °C and centrifuged for 10 min at 2000× g. The release of hemoglobin was controlled by measuring the optical density of the supernatant on an AP-101 digital photoelectrocolorimeter (Apel, Kawaguchi, Japan) at 540 nm. Simultaneously, control samples were prepared: controls for zero hemolysis (blank): 0.5 mL of a 10% suspension of erythrocytes was added to a physiologic saline (0.9% NaCl) solution; 100% hemolysis: 0.5 mL of a 10% suspension of erythrocytes was added to 4.5 mL of distilled water. The experiments were repeated three times and data are presented as the mean ± standard deviation.

[6] = tested on: Chang liver cell line; experiment: Cell viability evaluation (Cytell Cell Imaging); assay type: cell-based; details: 50% inhibition of cell growth, human hepatocytes, read-out: IC50 on Chang Liver Cells Line
Description: Cell viability of human hepatocytes cells (Chang liver cell line from the N. F. Gamaleya Research Center of Epidemiology and Microbiology) toward macrocycles was determined by means of multifunctional system Cytell Cell Imaging (GE Healthcare, Issaquah, WA, USA) using application Cell Viability BioApp and Automated Imaging BioApp. The cells were dispersed on a 96-well plate at a concentration of 200,000 cells/mL and cultivated in CO2-incubator at 37 °C. Next, the culture medium was sampled in 24 h, and 150 μL of the studied dispersions was added to each well. The experiments were repeated three times. Intact cells cultivated simultaneously with the studied ones served as a reference. The fraction of the grown-up cells was expressed in % vs. reference cells. Degree of cell growth inhibition under the influence of testing agent was calculated by equation:N (%) = (1 − Exp/Control) × 100(1) where Exp is the quantity of uninhibited cells in sample studied, Control is the quantity of uninhibited cells in control sample. Then the IC50 (concentration which caused 50% cell growth inhibition) was determined from curve of cell cultural growth versus macrocycle concentration. The experiments were repeated three times and results are presented as the mean ± standard deviation.

- CAC, UV spectroscopy (loss of linearity of absorption at 500 nm) [1]: 7.2 mM
SMILES: CC1c2cc(c(O)c(CN(C)C[C@@H](O)[C@H](O)[C@@H](O)[C@@H](O)CO)c2O)C(C)c2cc(c(O)c(CN(C)C[C@@H](O)[C@H](O)[C@@H](O)[C@@H](O)CO)c2O)C(C)c2cc(c(O)c(CN(C)C[C@@H](O)[C@H](O)[C@@H](O)[C@@H](O)CO)c2O)C(C)c2cc1c(O)c(CN(C)C[C@@H](O)[C@H](O)[C@@H](O)[C@@H](O)CO)c2O (stereo partly drawn) [GCR-2, N-methyl-D-glucaminemethyl methylcalix[4]resorcinarene]
- Solubilization of hydrophobic dye Sudan I [2]: do not solubilize the hydrophobic Sudan I
- MBC [3]: > 1000 µM
- MBC [4]: 1000 ± 80 µM (≈ 1370 µg/mL)
- hemolysis at 1 h, 0.125 mM ([5]; concentration 0.125 mM): 21.3 ± 1.7%
- hemolysis at 1 h, 0.25 mM ([5]; concentration 0.25 mM): 31.6 ± 2.7%
- hemolysis at 1 h, 0.5 mM ([5]; concentration 0.50 mM): 38.1 ± 3.4%
- IC50 [6]: > 100 µM

Source: publication PMC6572135, “N-Methyl-D-glucamine–Calix[4]resorcinarene Conjugates: Self-Assembly and Biological Properties” (Molecules, 2019)
